Assay [1] relates to Staphylococcus epidermidis. The assay is classed as cell-based. To be noted: Staphylococcus epidermidis clinical isolate. The procedure: (§1) The biological activity of the peptides can be determined by standard methods known to those of skill in the art, such as a “minimal inhibitory concentration” (MIC) assay (see Wu and Hancock (1999) J. Biol Chem. 274:29-35 and Examples section). A MIC assay allows the determination of the lowest concentration of peptide that inhibits the multiplication and growth of mircoorganisms. Changes in the microorganism population are assessed by measuring the optical density (OD) of the population in broth or medium. Peptide MIC's can be determined for a variety of micoorganisms under a variety of conditions. Another assay for the biological activity of the peptides is a “fractional inhibitory concentration” (FIC) assay. This assay is especially useful for determining synergistic effects between the peptides of the invention, and between invention peptides and other compounds such as known antibiotics. A FIC assay employs the strategy of a MIC assay with additional variable(s), e.g., known antibiotics. One type of FIC assay is performed in a microwell plate containing microorganisms in broth. Peptides, in a range of dilutions, is added to each well following a patter of one dimension of the microwell plate, and antibiotics, in the other dimension. The FIC is calculated by looking at the impact of an antibiotic on the MIC of the peptide and the reciprocal relationship. […] Preferably, an FIC of less than 0.5 is obtained for synergism. As used herein, FIC can be determined as follows:
(§2) The bacterial strains used for antimicrobial activity assays included E. coli UB1005 (F^−, nalA37, metB1) and its outer membrane deficient mutant DC2 (16), E. coli KF130 (gyrA) (Hooper et al. (1987) Am. J. Med. 82:(Suppl. 4A),12-20), wild tppe strains of S. typhimurium 14028s (Fields et al. (1989) Science 243:1059-1062), S. aureus ATCC25923, S. aureus SAP0017 and R147. Also included was a clinical isolate of S. epidermidis were obtained from Dr. D. Speert, Department of Medicine, University of British Columbia, and P. aeruginosa PAO1 (Hancock and Carey (1979) J. Bacteriol. 140:902-910), H374 and H744 (Poole et al. (1993) J. Bacterial.175:7363-7372.) and E. faecalis ATCC 29212. Antifungal activity was tested using a clinical lab isolate of Candida albicans. All the strains were grown in Mueller Hinton (MH) broth (Difco Laboratories, Detroit, Mich.) at 37° C. unless otherwise indicated. The lipopolysaccharides (LPS) of E. coli UB1005 and P. aeruginosa H103 used for the dansyl-polymyxin B replacement assay were isolated as described by Moore et al. ((1986) Antimicrobial. Agents Chemother. 29:496-500). Polymyxin B, 1-N-phenylnapthylamine (NPN), carbonyl cyanide-m-chlorophenyl hydrazone (CCCP), Re LPS from S. Minnesota R595 (Re mutant) and LPS from E. coli 0111 :B4 were purchased from Sigma Chemicals Co. (St. Louis, Mo.). Dansyl polymyxin B was synthesized as described previously (Moore et al. (1986) Antimicrobial. Agents Chemother. 29:496-500). The lipids 1-pamitoyl-2-oleoyl-sn-glycero-3-phosphocholine (POPC), 1-palmitoyl-2-oleoyl-sn-glycero-3-phosphoglycerol (POPG), 1-palmitoyl-2-oleoyl-sn-glycero-3-phosphoethanolamine (POPE) and phosphatidylglycerol from egg yolk (egg-PG) were purchased from Avanti Polar Lipids Inc. (Alabaster, Ala.). The fluorescent dye 3,3-dipropylthiacarbocyanine (diSC35) was purchased from Molecular Probes (Eugene, Oreg.).
(§3) MIC Assay p The minimum inhibitory concentrations of (MIC) of several invention peptides were determined using methods described elsewhere (Wu and Hancock, (1999) J. Biol Chem. 274:29-35). Cells were grown overnight at 37EC in LB-S (Luria broth without any salt supplement) and diluted one in 10,000 in the same medium to give concentrations of about 10^4 to 10^5 CFU/ml. The broth dilutions were set up in a 96-well microtiter plate by putting 200 μl of LB-S containing the initial concentration of antibiotic or compound in column 1 and 100 Φl of the same medium in columns 2-12. […]

Assay [2] has as its system Staphylococcus aureus ATCC 25923. It counts as cell-based. How it is done:
as §1, §2, §3

The next assay concerns Enterococcus facaelis. The assay is classed as cell-based. How it is done: as §1, §2, §3
In another assay the test system is E. coli KF130. The assay is classed as cell-based, Escherichia coli. How it is done: (§4) The biological activity of the peptides can be determined by standard methods known to those of skill in the art, such as a “minimal inhibitory concentration” (MIC) assay (see Wu and Hancock (1999) J. Biol Chem. 274:29-35 and Examples section). A MIC assay allows the determination of the lowest concentration of peptide that inhibits the multiplication and growth of mircoorganisms. Changes in the microorganism population are assessed by measuring the optical density (OD) of the population in broth or medium. Peptide MIC's can be determined for a variety of micoorganisms under a variety of conditions. Another assay for the biological activity of the peptides is a “fractional inhibitory concentration” (FIC) assay. This assay is especially useful for determining synergistic effects between the peptides of the invention, and between invention peptides and other compounds such as known antibiotics. A FIC assay employs the strategy of a MIC assay with additional variable(s), e.g., known antibiotics. […] The FIC is calculated by looking at the impact of an antibiotic on the MIC of the peptide and the reciprocal relationship. […] As used herein, FIC can be determined as follows: […]
(§5) MIC Assay p The minimum inhibitory concentrations of (MIC) of several invention peptides were determined using methods described elsewhere (Wu and Hancock, (1999) J. Biol Chem. 274:29-35). […]

A further assay relates to E. coli DC2. The assay is classed as cell-based, Escherichia coli. To be noted: E. coli DC2 (outer membrane deficient mutant). The procedure: as §4, §5
A further assay concerns P. aeruginosa H744. It counts as cell-based, Pseudomonas aeruginosa. The procedure:
as §4, §5

The next assay deals with P. aeruginosa H374. The assay is classed as cell-based, Pseudomonas aeruginosa. The procedure:
as §4, §5

In assay [3] the test system is E. coli 0111:B4 LPS induced production of IL-6 in RAW macrophages. Briefly: Reduction of LPS-induced IL-6 in RAW 264.7 macrophages (ELISA). It counts as cell-based, murine. To be noted: peptide 20 μg/ml; LPS 100 ng/ml; RAW 264.7; 6 hours. The procedure:
The ability of invention peptides to reduce LPS-induced tumor necrosis factor (TNF) production was tested in an in vitro assay. The murine macrophage cell line RAW 264.7 was obtained from American Type Culture Collection (Manassas, Va.) and grown in DMEM medium supplemented with 10% fetal calf serum. The cells were plated at a density of 10^6 cells/well in 24 well plates, incubated overnight, then washed with fresh medium. E. coli 0111 :B4 (100 ng/ml) was added at time 0 to RAW macrophages. Invention peptides […]/m were added at time 0, 30 and 60 minutes and the cells were stimulated for 6 hours. Levels of TNF and interleukin-6 (IL-6) were measured after 6 hours.
A general note: An ELISA detects its analyte on a solid surface through an enzyme-linked reagent.

The nature of assay [4]: LPS-induced endotoxemia in galactosamine-sensitized mice. It counts as in vivo. To be noted: 200 μg peptide intraperitoneally, groups of 10 mice, up to 24 h. The procedure:
Bacterial endotoxin (LPS) is highly toxic and can cause high mortality in both humans and animals when released during Gram-negative bacterial infection. Galactosamine-treated mice exposed to moderate does of endotoxin typically die from endotoxic shock within 17 hours following exposure. Invention peptides can be tested for their ability to protect mice against endotoxin-induced death (see Examples section). The anti-endotoxic activity of invention peptides also can be tested in an in vitro assay using a macrophage cell line (Gough et al. (1996) Infect. Immun. 64:4922-4927; and Examples section).
The ability of invention peptides to protect against LPS-induced endotoxemia was assessed in vivo. Mice (8-10 weeks old) were injected intraperitoneally with […] D-galactosamine (Dgal) to sensitize them to LPS according to the method of Galanos (Galanos et al. (1979) Proc. Natl. Acad. Sci., USA, 76:5939-5943). Endotoxic shock was induces by intraperitoneal injections of 3 μg/mL E. coli 111 :B4 LPS in phosphate-buffered saline (PBS). Invention peptides (200 μg/100 μl sterile water) were injected intraperitoneally at a separate site within 10 min of LPS injection, and survival was monitored up to 24 h following injection.

The results in this text go back to patent US6337317B1, “Antimicrobial peptides and methods of use thereof” (priority 2000, dated 2002).

SMILES strings stand for the structures. Where a SMILES comes first, the peptide text is derived from it.

As a reminder, the MIC is the least concentration at which growth counts as inhibited.

As to `CC(C)[C@@H]1NC(=O)[C@H](CCCNC(=N)N)NC(=O)[C@H](Cc2ccccc2)NC(=O)[C@@H](NC(=O)[C@H](Cc2c[nH]c3ccccc23)NC(=O)[C@H](CCCNC(=N)N)NC(=O)[C@@H](N)CCCNC(=N)N)CSSC[C@@H](C(=O)N[C@@H](CCCNC(=N)N)C(N)=O)NC(=O)[C@H](CCCCN)NC(=O)[C@H](CCCNC(=N)N)NC(=O)[C@H](Cc2ccc(O)cc2)NC(=O)[C@@H]2CSSC[C@H](NC1=O)C(=O)N[C@@H](Cc1ccc(O)cc1)C(=O)N[C@@H](CCCNC(=N)N)C(=O)NCC(=O)N[C@@H](Cc1ccccc1)C(=O)N2` [Polyphemusin I] (HELM PEPTIDE1{R.R.W.C.F.R.V.C.Y.R.G.F.C.Y.R.K.C.R.[am]}$PEPTIDE1,PEPTIDE1,4:R3-17:R3|PEPTIDE1,PEPTIDE1,8:R3-13:R3$$$V2.0; N-terminus and C-terminus assumed), the MIC in assay [1] worked out at 0.25 µg/mL; in assay [2], 0.5 µg/mL; in the assay on Enterococcus facaelis, 0.25 µg/mL; in the assay on E. coli KF130, 0.125 µg/mL; with E. coli DC2 it was 0.125 µg/mL; with P. aeruginosa H744, 0.25 µg/mL. In the assay with P. aeruginosa H374, the MIC came out at 0.25 µg/mL. Further, the “Inhibition of IL-6 (%)” value in assay [3] turned out to be 84 ± 3%. Further, the “Survival (%), LPS-Endotoxemia” value in assay [4] was found to be 10%.
